Measurements reported in US20230278972A1, “SUBSTITUTED HALOALKYL SULFONANILIDE HERBICIDES” (FMC Corporation, priority 2020, published 2023).

Legend:
Format in all cases: in vivo
kochia (Bassia scoparia) [1] = assay: Test A preemergence, kochia; conditions: Preemergence; for Kochia plant response rating: 125 g ai/ha, visual injury on 0 to 100 scale (0 no effect, 100 complete control), approximately 10 days; for Plant response rating, Kochia: 0 to 100 scale (0 no effect, 100 complete control)
In short: (§1)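 Test chemicals, formulated in a non-phytotoxic solvent mixture with surfactant, were sprayed postemergence on plants 2 to 10 cm tall at the one- to two-leaf stage. Preemergence treatment was a directed soil spray onto freshly seeded pots. Both used a loam soil and sand blend.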

[2] = system: Ryegrass, Italian (Italian ryegrass, Lolium multiflorum); assay: Test A preemergence, Ryegrass, Italian; conditions: Preemergence; for Ryegrass, Italian plant response rating: 125 g ai/ha, visual injury on 0 to 100 scale (0 no effect, 100 complete control), approximately 10 days; for Plant response rating, Ryegrass, Italian: 0 to 100 scale (0 no effect, 100 complete control)
In short: as §1

[3] = system: Foxtail, Giant (giant foxtail, Setaria faberi); assay: Test A postemergence, Foxtail, Giant; conditions: Postemergence, 0 to 100 scale (0 no effect, 100 complete control); for Foxtail, Giant plant response rating: 500 g ai/ha, visual injury vs untreated controls after approx. 10 days
In short: as §1

[4] = system: pigweed (Amaranthus retroflexus); assay: Test A postemergence, pigweed; conditions: Postemergence, 0 to 100 scale (0 no effect, 100 complete control); for Pigweed plant response rating: 500 g ai/ha, visual injury vs untreated controls after approx. 10 days
In short: as §1

[5] = system: ragweed (common ragweed, Ambrosia artemisiifolia); assay: Test A preemergence, ragweed; conditions: Preemergence; for Ragweed plant response rating: 125 g ai/ha, visual injury on 0 to 100 scale (0 no effect, 100 complete control), approximately 10 days; for Plant response rating, Ragweed: 0 to 100 scale (0 no effect, 100 complete control)
In short: as §1

[6] = system: barnyardgrass (Echinochloa crus-galli); assay: Test A postemergence, barnyardgrass; conditions: Postemergence, 0 to 100 scale (0 no effect, 100 complete control); for Barnyardgrass plant response rating: 500 g ai/ha, visual injury vs untreated controls after approx. 10 days
In short: (§2)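 Greenhouse pot test in a loam–sand blend; compounds delivered in a non-phytotoxic solvent carrying a surfactant, applied either as a directed spray to soil at seeding or over seedlings 2 to 10 cm high with one to two leaves.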

corn (Zea mays) = assay: Test A postemergence, corn; conditions: Postemergence, 0 to 100 scale (0 no effect, 100 complete control); for Corn plant response rating: 500 g ai/ha, visual injury vs untreated controls after approx. 10 days
In short: as §1

[7] = system: galium (catchweed bedstraw, Galium aparine); assay: Test A postemergence, galium; conditions: Postemergence, 0 to 100 scale (0 no effect, 100 complete control); for Galium plant response rating: 500 g ai/ha, visual injury vs untreated controls after approx. 10 days
In short: as §2

[8] = system: pigweed (Amaranthus retroflexus); assay: Test A preemergence, pigweed; conditions: for Pigweed plant response rating: 125 g ai/ha, visual injury on 0 to 100 scale (0 no effect, 100 complete control), approximately 10 days; for Plant response rating, Pigweed: 0 to 100 scale (0 no effect, 100 complete control)
In short: as §2

[9] = system: ragweed (common ragweed, Ambrosia artemisiifolia); assay: Test A postemergence, ragweed; conditions: Postemergence, 0 to 100 scale (0 no effect, 100 complete control); for Ragweed plant response rating: 500 g ai/ha, visual injury vs untreated controls after approx. 10 days
In short: as §1

[10] = system: Foxtail, Giant (giant foxtail, Setaria faberi); assay: Test A preemergence, Foxtail, Giant; conditions: Preemergence; for Foxtail, Giant plant response rating: 125 g ai/ha, visual injury on 0 to 100 scale (0 no effect, 100 complete control), approximately 10 days; for Plant response rating, Foxtail, Giant: 0 to 100 scale (0 no effect, 100 complete control)
In short: as §1

[11] = system: Ryegrass, Italian (Italian ryegrass, Lolium multiflorum); assay: Test A postemergence, Ryegrass, Italian; conditions: Postemergence, 0 to 100 scale (0 no effect, 100 complete control); for Ryegrass, Italian plant response rating: 500 g ai/ha, visual injury vs untreated controls after approx. 10 days
In short: as §1

[12] = system: blackgrass (Alopecurus myosuroides); assay: Test A postemergence, blackgrass; conditions: Postemergence, 0 to 100 scale (0 no effect, 100 complete control); for Blackgrass plant response rating: 500 g ai/ha, visual injury vs untreated controls after approx. 10 days
In short: as §1

[13] = system: barnyardgrass (Echinochloa crus-galli); assay: Test A preemergence, barnyardgrass; conditions: Preemergence; for Barnyardgrass plant response rating: 125 g ai/ha, visual injury on 0 to 100 scale (0 no effect, 100 complete control), approximately 10 days; for Plant response rating, Barnyardgrass: 0 to 100 scale (0 no effect, 100 complete control)
In short: as §1

[14] = system: wheat (Triticum aestivum); assay: Test A postemergence, wheat; conditions: Postemergence, 0 to 100 scale (0 no effect, 100 complete control); for Wheat plant response rating: 500 g ai/ha, visual injury vs untreated controls after approx. 10 days
In short: as §2

kochia (Bassia scoparia) [15] = assay: Test A postemergence, kochia; conditions: Postemergence, 0 to 100 scale (0 no effect, 100 complete control); for Kochia plant response rating: 500 g ai/ha, visual injury vs untreated controls after approx. 10 days
In short: as §1

[16] = 31 g ai/ha, visual injury, approx. 10 days
[17] = 125 g ai/ha, visual injury approx. 10 days

Structure (SMILES): C#CCN(CC#C)C(=O)c1cc(NS(=O)(=O)C(F)(F)F)c(C)cc1C [Compound 187]
- Kochia plant response rating (kochia (Bassia scoparia) [1]): 80
- Plant response rating, Kochia (kochia (Bassia scoparia) [1]; 500 g ai/ha): 80
- Ryegrass, Italian plant response rating [2]: 100
- Plant response rating, Ryegrass, Italian ([2]; 500 g ai/ha): 100
- Plant response rating, Foxtail, Giant ([3]; 125 g ai/ha): 80
- Foxtail, Giant plant response rating [3]: 90
- Plant response rating, Pigweed ([4]; 125 g ai/ha): 30
- Pigweed plant response rating [4]: 60
- Ragweed plant response rating [5]: 70
- Plant response rating, Ragweed ([5]; 500 g ai/ha): 90
- Plant response rating, Barnyardgrass ([6]; 125 g ai/ha): 90
- Barnyardgrass plant response rating [6]: 90
- Plant response rating, Corn (corn (Zea mays); 125 g ai/ha): 80
- Corn plant response rating (corn (Zea mays)): 90
- Plant response rating, Galium ([7]; 125 g ai/ha): 80
- Galium plant response rating [7]: 80
- Pigweed plant response rating [8]: 70
- Plant response rating, Pigweed ([8]; 500 g ai/ha): 80
- Plant response rating, Ragweed ([9]; 125 g ai/ha): 80
- Ragweed plant response rating [9]: 90
- Foxtail, Giant plant response rating [10]: 100
- Plant response rating, Foxtail, Giant ([10]; 500 g ai/ha): 100
- Plant response rating, Ryegrass, Italian ([11]; 125 g ai/ha): 90
- Ryegrass, Italian plant response rating [11]: 80
- Plant response rating, Blackgrass ([12]; 125 g ai/ha): 20
- Blackgrass plant response rating [12]: 20
- Barnyardgrass plant response rating [13]: 100
- Plant response rating, Barnyardgrass ([13]; 500 g ai/ha): 100
- Plant response rating, Wheat ([14]; 125 g ai/ha): 70
- Wheat plant response rating [14]: 70
- Plant response rating, Kochia (kochia (Bassia scoparia) [15]; 125 g ai/ha): 50
- Kochia plant response rating (kochia (Bassia scoparia) [15]): 70

Structure (SMILES): COC1CCCN(C(=O)c2cc(N(C(C)=O)S(=O)(=O)C(F)(F)F)c(C)cc2C)C1 (stereo not drawn) [Compound 93]
- Plant response rating, Kochia (kochia (Bassia scoparia) [1]; [16]): 0
- Kochia plant response rating (kochia (Bassia scoparia) [1]): 50
- Plant response rating, Ryegrass, Italian [2, 16]: 0
- Ryegrass, Italian plant response rating [2]: 80
- Plant response rating, Foxtail, Giant ([3]; 31 g ai/ha): 0
- Plant response rating, Foxtail, Giant [3, 17]: 10
- Plant response rating, Pigweed ([4]; 31 g ai/ha): 30
- Plant response rating, Pigweed [4, 17]: 50
- Plant response rating, Ragweed [5, 16]: 0
- Ragweed plant response rating [5]: 70
- Plant response rating, Barnyardgrass ([6]; 31 g ai/ha): 0
- Plant response rating, Barnyardgrass [6, 17]: 60
- Plant response rating, Corn (corn (Zea mays); 31 g ai/ha): 0
- Plant response rating, Corn (corn (Zea mays); [17]): 20
- Plant response rating, Galium ([7]; 31 g ai/ha): 80
- Plant response rating, Galium [7, 17]: 80
- Plant response rating, Pigweed [8, 16]: 50
- Pigweed plant response rating [8]: 100
- Plant response rating, Ragweed ([9]; 31 g ai/ha): 30
- Plant response rating, Ragweed [9, 17]: 30
- Plant response rating, Foxtail, Giant [10, 16]: 60
- Foxtail, Giant plant response rating [10]: 80
- Plant response rating, Ryegrass, Italian ([11]; 31 g ai/ha): 0
- Plant response rating, Ryegrass, Italian [11, 17]: 20
- Plant response rating, Blackgrass ([12]; 31 g ai/ha): 20
- Plant response rating, Blackgrass [12, 17]: 70
- Plant response rating, Barnyardgrass [13, 16]: 0
- Barnyardgrass plant response rating [13]: 80
- Plant response rating, Wheat ([14]; 31 g ai/ha): 30
- Plant response rating, Wheat [14, 17]: 60
- Plant response rating, Kochia (kochia (Bassia scoparia) [15]; 31 g ai/ha): 10
- Plant response rating, Kochia (kochia (Bassia scoparia) [15]; [17]): 30

Structure (SMILES): Cc1cc(C)c(-c2cc(C(F)(F)F)nn(C)c2=O)cc1NS(=O)(=O)C(F)(F)F [Compound 71]
- Kochia plant response rating (kochia (Bassia scoparia) [1]): 80
- Plant response rating, Kochia (kochia (Bassia scoparia) [1]; 500 g ai/ha): 40
- Ryegrass, Italian plant response rating [2]: 70
- Plant response rating, Ryegrass, Italian ([2]; 500 g ai/ha): 100
- Plant response rating, Foxtail, Giant [3, 17]: 0
- Foxtail, Giant plant response rating [3]: 90
- Plant response rating, Pigweed [4, 17]: 0
- Pigweed plant response rating [4]: 60
- Ragweed plant response rating [5]: 10
- Plant response rating, Ragweed ([5]; 500 g ai/ha): 60
- Plant response rating, Barnyardgrass [6, 17]: 0
- Barnyardgrass plant response rating [6]: 80
- Plant response rating, Corn (corn (Zea mays); [17]): 0
- Corn plant response rating (corn (Zea mays)): 30
- Plant response rating, Galium [7, 17]: 50
- Galium plant response rating [7]: 80
- Pigweed plant response rating [8]: 40
- Plant response rating, Pigweed ([8]; 500 g ai/ha): 60
- Plant response rating, Ragweed [9, 17]: 0
- Ragweed plant response rating [9]: 0
- Foxtail, Giant plant response rating [10]: 80
- Plant response rating, Foxtail, Giant ([10]; 500 g ai/ha): 100
- Plant response rating, Ryegrass, Italian [11, 17]: 70
- Ryegrass, Italian plant response rating [11]: 80
- Plant response rating, Blackgrass [12, 17]: 0
- Blackgrass plant response rating [12]: 70
- Barnyardgrass plant response rating [13]: 0
- Plant response rating, Barnyardgrass ([13]; 500 g ai/ha): 100
- Plant response rating, Wheat [14, 17]: 40
- Wheat plant response rating [14]: 70
- Plant response rating, Kochia (kochia (Bassia scoparia) [15]; [17]): 20
- Kochia plant response rating (kochia (Bassia scoparia) [15]): 40
